# From ChEMBL document CHEMBL5316344, “Homologation of the Alkyl Side Chain of Antimitotic Phenyl 4-(2-Oxo-3-alkylimidazolidin-1-yl)benzenesulfonate Prodrugs Selectively Targeting CYP1A1-Expressing Breast Cancers Improves Their Stability in Rodent Liver Microsomes” (J Med Chem, 2023)
# Calls of active or inactive are those of the source. No cut-off for these calls is given here.
# How the values were obtained:
# [1] = Stability in human liver microsomes assessed as intrinsic clearance incubated for 60 mins by HPLC analysis; type: ADME, Microsome; details: read-out: CLH
# Tubulin (Homo sapiens) [2] = biological target: T1, Tubulin (Homo sapiens) (UniProt P68371+Q9H4B7+P0DPH7+P68366+Q13509+Q71U36+P04350+Q3ZCM7+P07437+P68363+Q9BQE3+Q6PEY2+Q13885+Q9BVA1+Q9BUF5); assay: Disruption of microtubules in human MCF7 cells expressing CYP1A1 assessed as cytoskeleton disruption at 840 nM measured after 48 hrs by DAPI staining based fluorescence microscopic analysis; type: cell-based
# M21 = assay: Antiproliferative activity against human M21 cells assessed as cell growth inhibition incubated for 48 hrs by sulforhodamine B assay; type: functional, cell-based; details: M21, 48 h
# [3] = Stability in mouse liver microsomes assessed as half life incubated for 60 mins by HPLC analysis; type: ADME, Microsome
# HT-1080 [4] = assay: Antitumor activity against human HT-1080 cells transfected with empty vector xenografted in chick embryo assessed as reduction in tumor wet weight at 1 ug, iv incubated for 17 days by CAM assay; type: functional; design: scale not given: the % may be the effect or the level left; details: dose 1 µg, time 17 day
# [5] = Stability in rat liver microsomes assessed as intrinsic clearance incubated for 60 mins by HPLC analysis; type: ADME, Microsome; details: read-out: CLH
# [6] = Selectivity ratio, ratio of IC50 for antiproliferative activity against human HT-1080 cells to IC50 for antiproliferative activity against human HT-1080 cells expressing CYP1A1; type: functional
# MDA-MB-231 = assay: Antiproliferative activity against ER/PR/HER2-negative human MDA-MB-231 cells assessed as cell growth inhibition incubated for 72 hrs by sulforhodamine B assay; type: functional, cell-based; details: MDA-MB-231, 72 h
# [7] = Stability in human liver microsomes assessed as half life incubated for 60 mins by HPLC analysis; type: ADME, Microsome
# [8] = Selectivity ratio, ratio of IC50 for antiproliferative activity against human HT-29 cells to IC50 for antiproliferative activity against human MCF7 cells expressing CYP1A1; type: functional
# [9] = Selectivity ratio, ratio of IC50 for antiproliferative activity against ER/PR/HER2-negative human MDA-MB-231 cells to IC50 for antiproliferative activity against ER/PR/HER2-negative human MDA-MB-468 cells; type: functional
# [10] = Stability in rat liver microsomes assessed as half life incubated for 60 mins by HPLC analysis; type: ADME, Microsome
# MCF7 [11] = assay: Induction of cell cycle arrest in human MCF7 cells expressing CYP1A1 assessed as accumulation of cells at G2/M phase at 50 nM incubated for 48 hrs by DAPI staining based flow cytometric analysis (reference value: 16+/-2 %); type: functional
# Cytochrome P450 1A1 [12] = biological target: T2, Cytochrome P450 1A1 (Homo sapiens, UniProt P04798); assay: Prodrug conversion assessed as human CYP1A1-mediated CEU-602 formation incubated for 15 mins in presence of NADPH by HPLC analysis; type: ADME; details: recombinant enzyme, 0.25 h
# T2 sequence (P04798 whole entry): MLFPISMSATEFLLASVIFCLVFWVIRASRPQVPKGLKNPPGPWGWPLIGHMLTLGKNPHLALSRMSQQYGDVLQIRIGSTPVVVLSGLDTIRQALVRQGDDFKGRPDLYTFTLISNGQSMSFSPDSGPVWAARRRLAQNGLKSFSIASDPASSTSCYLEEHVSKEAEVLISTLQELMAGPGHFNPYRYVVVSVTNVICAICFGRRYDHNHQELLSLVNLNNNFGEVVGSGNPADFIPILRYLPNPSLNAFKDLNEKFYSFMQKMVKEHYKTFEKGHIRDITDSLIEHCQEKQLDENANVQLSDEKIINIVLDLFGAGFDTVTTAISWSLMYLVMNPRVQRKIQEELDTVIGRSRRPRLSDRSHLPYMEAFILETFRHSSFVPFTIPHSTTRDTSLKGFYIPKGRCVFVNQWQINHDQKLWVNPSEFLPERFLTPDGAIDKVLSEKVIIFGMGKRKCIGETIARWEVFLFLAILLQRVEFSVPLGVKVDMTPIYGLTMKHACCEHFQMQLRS
# [13] = Stability in mouse liver microsomes assessed as intrinsic clearance incubated for 60 mins by HPLC analysis; type: ADME, Microsome; details: read-out: CLH
# HT-1080 [14] = assay: Antiproliferative activity against human HT-1080 cells assessed as cell growth inhibition incubated for 48 hrs by sulforhodamine B assay; type: functional, cell-based; details: HT-1080, 48 h
# HT-1080 [15] = assay: Antitumor activity against human HT-1080 cells expressing CYP1A1 xenografted in chick embryo assessed as reduction in tumor wet weight at 1 ug, iv incubated for 17 days by CAM assay; type: functional; design: scale not given: the % may be the effect or the level left; details: dose 1 µg, time 17 day
# HT-1080 [16] = assay: Antitumor activity against human HT-1080 cells xenografted in chick embryo assessed as reduction in tumor wet weight at 1 ug, iv incubated for 17 days by CAM assay; type: functional; design: scale not given: the % may be the effect or the level left; details: dose 1 µg, time 17 day
# MCF7 [17] = assay: Induction of cell cycle arrest in human MCF7 cells expressing CYP1A1 assessed as accumulation of cells at S phase at 50 nM incubated for 48 hrs by DAPI staining based flow cytometric analysis (reference value: 11+/-1 %); type: functional
# HT-1080 [18] = assay: Antiproliferative activity against human HT-1080 cells transfected with empty vector assessed as cell growth inhibition incubated for 48 hrs by sulforhodamine B assay; type: functional, cell-based; details: HT-1080, 48 h
# HT-1080 [19] = assay: Antiproliferative activity against human HT-1080 cells expressing CYP1A1 assessed as cell growth inhibition incubated for 48 hrs by sulforhodamine B assay; type: functional, cell-based; details: HT-1080, 48 h
# Cytochrome P450 1A1 [20] = biological target: T2, Cytochrome P450 1A1; assay: Binding affinity to human CYP1A1 assessed as inhibition of conversion of 7-ethoicyresorufin into fluorescent resorufin by measuring inhibition constant preincubated for 5 mins followed by […] addition measured every minute for 15 mins by EROD assay; type: ADME
# [21] = Selectivity ratio, ratio of IC50 for antiproliferative activity against ER/PR/HER2-negative human MDA-MB-231 cells to IC50 for antiproliferative activity against ER/PR-negative HER2-positive human SK-BR-3 cells; type: functional
# MCF7 [22] = assay: Antiproliferative activity against human MCF7 cells expressing CYP1A1 assessed as cell growth inhibition incubated for 48 hrs by sulforhodamine B assay; type: functional, cell-based; details: MCF7, 48 h
# MCF7 [23] = assay: Induction of cell cycle arrest in human MCF7 cells expressing CYP1A1 assessed as accumulation of cells at G0/G1 phase at 50 nM incubated for 48 hrs by DAPI staining based flow cytometric analysis (reference value: 74+/-2 %); type: functional
# T47D = assay: Antiproliferative activity against ER/PR-positive HER2-negative human T47D cells assessed as cell growth inhibition incubated for 72 hrs by sulforhodamine B assay; type: functional, cell-based
# [24] = Toxicity in chick embryo xenografted with human […] cells expressing CYP1A1 assessed as mortality at 1 ug, iv incubated for 17 days; type: organism-based, Gallus gallus; details: chicken, in vivo, 408 h, dose 1 µg, time 17 day
# MDA-MB-468 = assay: Antiproliferative activity against ER/PR/HER2-negative human MDA-MB-468 cells assessed as cell growth inhibition incubated for 72 hrs by sulforhodamine B assay; type: functional, cell-based; details: MDA-MB-468, 72 h
# [25] = Selectivity ratio, ratio of IC50 for antiproliferative activity against ER/PR/HER2-negative human MDA-MB-231 cells to IC50 for antiproliferative activity against ER/PR-positive HER2-negative human T47D cells; type: functional
# [26] = Toxicity in chick embryo xenografted with human […] cells transfected with empty vector assessed as mortality at 1 ug, iv incubated for 17 days; type: organism-based, Gallus gallus; details: chicken, in vivo, 408 h, dose 1 µg, time 17 day
# [27] = Selectivity ratio, ratio of IC50 for antiproliferative activity against human HT-1080 cells transfected with empty vector to IC50 for antiproliferative activity against human HT-1080 cells expressing CYP1A1; type: functional
# SK-BR-3 = assay: Antiproliferative activity against ER/PR-negative HER2-positive human SK-BR-3 cells assessed as cell growth inhibition incubated for 72 hrs by sulforhodamine B assay; type: functional, cell-based; details: SK-BR-3, 72 h
# [28] = Selectivity ratio, ratio of IC50 for antiproliferative activity against ER/PR/HER2-negative human MDA-MB-231 cells to IC50 for antiproliferative activity against […] human MCF7 cells; type: functional
# [29] = Selectivity ratio, ratio of IC50 for antiproliferative activity against human M21 cells to IC50 for antiproliferative activity against human MCF7 cells expressing CYP1A1; type: functional
# [30] = Toxicity in chick embryo xenografted with human […] cells assessed as mortality at 1 ug, iv incubated for 17 days; type: organism-based, Gallus gallus; details: chicken, in vivo, 408 h, dose 1 µg, time 17 day
# MCF7 [31] = assay: Antiproliferative activity against […] human MCF7 cells assessed as cell growth inhibition incubated for 72 hrs by sulforhodamine B assay; type: functional, cell-based; details: MCF7, 72 h
# HT-29 = assay: Antiproliferative activity against human HT-29 cells assessed as cell growth inhibition incubated for 48 hrs by sulforhodamine B assay; type: functional, cell-based; details: HT-29, 48 h
# Tubulin (Homo sapiens) [32] = biological target: T1, Tubulin (Homo sapiens); assay: Disruption of microtubules in human MCF7 cells expressing CYP1A1 assessed as cytoskeleton disruption at 1250 nM measured after 48 hrs by DAPI staining based fluorescence microscopic analysis; type: cell-based
# MCF7 [33] = assay: Induction of cell cycle arrest in human MCF7 cells expressing CYP1A1 assessed as accumulation of cells at G2/M phase at 1250 nM incubated for 48 hrs by DAPI staining based flow cytometric analysis (reference value: 16+/-2 %); type: functional
# MCF7 [34] = assay: Induction of cell cycle arrest in human MCF7 cells expressing CYP1A1 assessed as accumulation of cells at G0/G1 phase at 1250 nM incubated for 48 hrs by DAPI staining based flow cytometric analysis (reference value: 74+/-2 %); type: functional
# Cytochrome P450 1A1 [35] = biological target: T2, Cytochrome P450 1A1; assay: Prodrug conversion assessed as human CYP1A1-mediated CEU-699 formation incubated for 15 mins in presence of NADPH by HPLC analysis; type: ADME; details: recombinant enzyme, 0.25 h
# MCF7 [36] = assay: Induction of cell cycle arrest in human MCF7 cells expressing CYP1A1 assessed as accumulation of cells at S phase at 1250 nM incubated for 48 hrs by DAPI staining based flow cytometric analysis (reference value: 11+/-1 %); type: functional
SMILES,microsomal CLint [1] [µL/min/mg],IC50 (M21) [µM],half-life [3] [min],Activity (HT-1080 [4]) [%],microsomal CLint [5] [µL/min/mg],Ratio IC50 [6],IC50 (MDA-MB-231) [µM],half-life [7] [min],Ratio IC50 [8],Ratio IC50 [9],half-life [10] [min],microsomal CLint [13] [µL/min/mg],IC50 (HT-1080 [14]) [µM],Activity (HT-1080 [15]) [%],Activity (HT-1080 [16]) [%],IC50 (HT-1080 [18]) [µM],IC50 (HT-1080 [19]) [nM],Ki (Cytochrome P450 1A1 [20]) [nM],Ratio IC50 [21],IC50 (MCF7 [22]) [nM],also measured
CCCCCN1CCN(c2ccc(S(=O)(=O)Oc3cc(OC)c(OC)c(OC)c3)cc2)C1=O,24.3,> 12.5,18.9,93,11.1,148,8.6,57,>63,410,125,74,4.44,62,82,5.9,30,1400,2700,200,Activity (Tubulin (Homo sapiens) [2]): Active; Activity (MCF7 [11]): 42%; Drug metabolism (Cytochrome P450 1A1 [12]): Metabolite_Detected; Activity (MCF7 [17]): 14%; Activity (MCF7 [23]): 44%; IC50 (T47D): 1000 nM; Activity [24]: Non-Toxic; IC50 (MDA-MB-468): 21 nM; Ratio IC50 [25]: 8.6; Activity [26]: Non-Toxic; Ratio IC50 [27]: 197; IC50 (SK-BR-3): 3.2 nM; Ratio IC50 [28]: 230; Ratio IC50 [29]: >63; Activity [30]: Non-Toxic; IC50 (MCF7 [31]): 38 nM; IC50 (HT-29): > 12.5 µM
CCCCCN1CCN(c2ccc(S(=O)(=O)Oc3cc(OC)cc(OC)c3)cc2)C1=O,20,> 12.5,44,87,13,14,> 12.5,70,>21,>60,107,32,6.8,71,86,8.8,500,230,>160,600,Activity (Tubulin (Homo sapiens) [32]): Active; Activity (MCF7 [33]): 57%; Activity (MCF7 [34]): 32%; Drug metabolism (Cytochrome P450 1A1 [35]): Metabolite_Detected; IC50 (T47D): 1100 nM; Activity [24]: Non-Toxic; IC50 (MDA-MB-468): 210 nM; Ratio IC50 [25]: >11; Activity [26]: Non-Toxic; Ratio IC50 [27]: 18; IC50 (SK-BR-3): 79 nM; Ratio IC50 [28]: >290; Ratio IC50 [29]: >21; Activity [30]: Non-Toxic; IC50 (MCF7 [31]): 43 nM; Activity (MCF7 [36]): 11%; IC50 (HT-29): > 12.5 µM
